From patent US7118895B2, “Process for producing aglycon by using diglycosidase and flavor-improved food containing the aglycon and converting agent to be used in the process” (Amano Enzyme Inc., priority 2000, dated 2006)

Test system: Crude diglycosidase
Assay: Examination of substrate concentration in the conversion into isoflavone aglycons by diglycosidase using soybean materials;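 also: percent of the isoflavone family total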
Type: biochemical, Penicillium multicolor IAM7153
How it was run: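 Reaction at 55° C, shaken, pH 4.0 (20 mM acetate), using crude diglycosidase from a 1.88 AU/mL enzyme solution on soy flour, soymilk, defatted soybean or soy protein concentrate at 2, 5, 10, 20 or 30% (w/v). Isoflavone aglycons quantified by HPLC of ethanol extracts at 0, 1, 3, 6 h.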

Decomposition efficiency: ratio of each glycoside/aglycon within its isoflavone family (defatted soybean, substrate concentration 10%, heat treatment of enzyme no, reaction time 3 h): 36.6%
Decomposition efficiency: ratio of each glycoside/aglycon within its isoflavone family (defatted soybean, substrate concentration 10%, heat treatment of enzyme no, reaction time 6 h): 27.9%
Decomposition efficiency: ratio of each glycoside/aglycon within its isoflavone family (defatted soybean, substrate concentration 10%, heat treatment of enzyme yes, reaction time 6 h): 57.6%
Decomposition efficiency: ratio of each glycoside/aglycon within its isoflavone family (roasted soy flour, substrate concentration 2%, heat treatment of enzyme no, reaction time 0 h): not detected
Decomposition efficiency: ratio of each glycoside/aglycon within its isoflavone family (roasted soy flour, substrate concentration 2%, heat treatment of enzyme no, reaction time 1 h): not detected
Decomposition efficiency: ratio of each glycoside/aglycon within its isoflavone family (roasted soy flour, substrate concentration 2%, heat treatment of enzyme no, reaction time 3 h): not detected
Decomposition efficiency: ratio of each glycoside/aglycon within its isoflavone family (roasted soy flour, substrate concentration 2%, heat treatment of enzyme no, reaction time 6 h): not detected
Decomposition efficiency: ratio of each glycoside/aglycon within its isoflavone family (roasted soy flour, substrate concentration 2%, heat treatment of enzyme yes, reaction time 6 h): not detected
Decomposition efficiency: ratio of each glycoside/aglycon within its isoflavone family (roasted soy flour, substrate concentration 5%, heat treatment of enzyme no, reaction time 0 h): not detected
Decomposition efficiency: ratio of each glycoside/aglycon within its isoflavone family (roasted soy flour, substrate concentration 5%, heat treatment of enzyme no, reaction time 1 h): not detected
Decomposition efficiency: ratio of each glycoside/aglycon within its isoflavone family (roasted soy flour, substrate concentration 5%, heat treatment of enzyme no, reaction time 3 h): not detected
Decomposition efficiency: ratio of each glycoside/aglycon within its isoflavone family (roasted soy flour, substrate concentration 5%, heat treatment of enzyme no, reaction time 6 h): not detected
Decomposition efficiency: ratio of each glycoside/aglycon within its isoflavone family (roasted soy flour, substrate concentration 5%, heat treatment of enzyme yes, reaction time 6 h): not detected
Decomposition efficiency: ratio of each glycoside/aglycon within its isoflavone family (roasted soy flour, substrate concentration 10%, heat treatment of enzyme no, reaction time 0 h): not detected
Decomposition efficiency: ratio of each glycoside/aglycon within its isoflavone family (roasted soy flour, substrate concentration 10%, heat treatment of enzyme no, reaction time 1 h): not detected
Decomposition efficiency: ratio of each glycoside/aglycon within its isoflavone family (roasted soy flour, substrate concentration 10%, heat treatment of enzyme no, reaction time 3 h): not detected
Decomposition efficiency: ratio of each glycoside/aglycon within its isoflavone family (roasted soy flour, substrate concentration 10%, heat treatment of enzyme no, reaction time 6 h): not detected
Decomposition efficiency: ratio of each glycoside/aglycon within its isoflavone family (roasted soy flour, substrate concentration 10%, heat treatment of enzyme yes, reaction time 6 h): not detected
Decomposition efficiency: ratio of each glycoside/aglycon within its isoflavone family (roasted soy flour, substrate concentration 20%, heat treatment of enzyme no, reaction time 0 h): not detected
Decomposition efficiency: ratio of each glycoside/aglycon within its isoflavone family (roasted soy flour, substrate concentration 20%, heat treatment of enzyme no, reaction time 1 h): not detected
Decomposition efficiency: ratio of each glycoside/aglycon within its isoflavone family (roasted soy flour, substrate concentration 20%, heat treatment of enzyme no, reaction time 3 h): not detected
Decomposition efficiency: ratio of each glycoside/aglycon within its isoflavone family (roasted soy flour, substrate concentration 20%, heat treatment of enzyme no, reaction time 6 h): not detected
Decomposition efficiency: ratio of each glycoside/aglycon within its isoflavone family (roasted soy flour, substrate concentration 20%, heat treatment of enzyme yes, reaction time 6 h): not detected
Decomposition efficiency: ratio of each glycoside/aglycon within its isoflavone family (roasted soy flour, substrate concentration 30%, heat treatment of enzyme no, reaction time 0 h): not detected
Decomposition efficiency: ratio of each glycoside/aglycon within its isoflavone family (roasted soy flour, substrate concentration 30%, heat treatment of enzyme no, reaction time 1 h): not detected
Decomposition efficiency: ratio of each glycoside/aglycon within its isoflavone family (roasted soy flour, substrate concentration 30%, heat treatment of enzyme no, reaction time 3 h): not detected
Decomposition efficiency: ratio of each glycoside/aglycon within its isoflavone family (roasted soy flour, substrate concentration 30%, heat treatment of enzyme no, reaction time 6 h): not detected
Decomposition efficiency: ratio of each glycoside/aglycon within its isoflavone family (roasted soy flour, substrate concentration 30%, heat treatment of enzyme yes, reaction time 6 h): not detected
Decomposition efficiency: ratio of each glycoside/aglycon within its isoflavone family (soymilk, substrate concentration 2%, heat treatment of enzyme no, reaction time 0 h): 28.2%
Decomposition efficiency: ratio of each glycoside/aglycon within its isoflavone family (soymilk, substrate concentration 2%, heat treatment of enzyme no, reaction time 1 h): not detected
Decomposition efficiency: ratio of each glycoside/aglycon within its isoflavone family (soymilk, substrate concentration 2%, heat treatment of enzyme no, reaction time 3 h): not detected
Decomposition efficiency: ratio of each glycoside/aglycon within its isoflavone family (soymilk, substrate concentration 2%, heat treatment of enzyme no, reaction time 6 h): not detected
Decomposition efficiency: ratio of each glycoside/aglycon within its isoflavone family (soymilk, substrate concentration 2%, heat treatment of enzyme yes, reaction time 6 h): 48.2%
Decomposition efficiency: ratio of each glycoside/aglycon within its isoflavone family (soymilk, substrate concentration 5%, heat treatment of enzyme no, reaction time 0 h): 50.6%
Decomposition efficiency: ratio of each glycoside/aglycon within its isoflavone family (soymilk, substrate concentration 5%, heat treatment of enzyme no, reaction time 1 h): 24.6%
Decomposition efficiency: ratio of each glycoside/aglycon within its isoflavone family (soymilk, substrate concentration 5%, heat treatment of enzyme no, reaction time 3 h): 7.5%
Decomposition efficiency: ratio of each glycoside/aglycon within its isoflavone family (soymilk, substrate concentration 5%, heat treatment of enzyme no, reaction time 6 h): not detected
Decomposition efficiency: ratio of each glycoside/aglycon within its isoflavone family (soymilk, substrate concentration 5%, heat treatment of enzyme yes, reaction time 6 h): 43.3%
Decomposition efficiency: ratio of each glycoside/aglycon within its isoflavone family (soymilk, substrate concentration 10%, heat treatment of enzyme no, reaction time 0 h): 41.1%
Decomposition efficiency: ratio of each glycoside/aglycon within its isoflavone family (soymilk, substrate concentration 10%, heat treatment of enzyme no, reaction time 1 h): 26.4%
Decomposition efficiency: ratio of each glycoside/aglycon within its isoflavone family (soymilk, substrate concentration 10%, heat treatment of enzyme no, reaction time 3 h): 10.5%
Decomposition efficiency: ratio of each glycoside/aglycon within its isoflavone family (soymilk, substrate concentration 10%, heat treatment of enzyme no, reaction time 6 h): 4.2%
Decomposition efficiency: ratio of each glycoside/aglycon within its isoflavone family (soymilk, substrate concentration 10%, heat treatment of enzyme yes, reaction time 6 h): 37.0%
Decomposition efficiency: ratio of each glycoside/aglycon within its isoflavone family (soymilk, substrate concentration 20%, heat treatment of enzyme no, reaction time 0 h): 41.3%
Decomposition efficiency: ratio of each glycoside/aglycon within its isoflavone family (soymilk, substrate concentration 20%, heat treatment of enzyme no, reaction time 1 h): 27.8%
Decomposition efficiency: ratio of each glycoside/aglycon within its isoflavone family (soymilk, substrate concentration 20%, heat treatment of enzyme no, reaction time 3 h): 9.4%
Decomposition efficiency: ratio of each glycoside/aglycon within its isoflavone family (soymilk, substrate concentration 20%, heat treatment of enzyme no, reaction time 6 h): 5.9%
Decomposition efficiency: ratio of each glycoside/aglycon within its isoflavone family (soymilk, substrate concentration 20%, heat treatment of enzyme yes, reaction time 6 h): 38.8%
Decomposition efficiency: ratio of each glycoside/aglycon within its isoflavone family (soymilk, substrate concentration 30%, heat treatment of enzyme no, reaction time 0 h): 43.0%
Decomposition efficiency: ratio of each glycoside/aglycon within its isoflavone family (soymilk, substrate concentration 30%, heat treatment of enzyme no, reaction time 1 h): 33.1%
Decomposition efficiency: ratio of each glycoside/aglycon within its isoflavone family (soymilk, substrate concentration 30%, heat treatment of enzyme no, reaction time 3 h): 15.9%
Decomposition efficiency: ratio of each glycoside/aglycon within its isoflavone family (soymilk, substrate concentration 30%, heat treatment of enzyme no, reaction time 6 h): 7.7%
Decomposition efficiency: ratio of each glycoside/aglycon within its isoflavone family (soymilk, substrate concentration 30%, heat treatment of enzyme yes, reaction time 6 h): 37.5%
SMILES: COc1cc2c(=O)c(-c3ccc(O)cc3)coc2cc1O[C@@H]1O[C@H](COC(=O)CC(=O)O)[C@@H](O)[C@H](O)[C@H]1O [malonylglycitin, 6″-O-malonylglycitin]
